Our source for the melting point values is patent US8012499B2, “Anthranilamides for controlling invertebrate pests” (E.I. du Pont de Nemours and Company, priority 2005, dated 2011).

With `C/N=C(/C(=O)NC)c1cc(Cl)cc(C)c1NC(=O)c1cc(Br)nn1-c1ncccc1Cl` [Example 6, 3-bromo-N-[4-chloro-2-methyl-6-[(1E)-2-(methylamino)-1-(methylimino)-2-oxoethyl]phenyl]-1-(3-chloro-2-pyridinyl)-1H-pyrazole-5-carboxamide], the melting point was 234 °C (dec.). Turning to `CCN(CC)C(=O)C(=O)c1cc(C)cc(C)c1NC(=O)c1cc(C(F)(F)F)nn1-c1ncccc1Cl` [Example 2, 1-(3-chloro-2-pyridinyl)-N-[2-[(diethylamino)oxoacetyl]-4,6-dimethylphenyl]-3-(trifluoromethyl)-1H-pyrazole-5-carboxamide], the melting point was in the range of 223 to 227 °C. Regarding `CNC(=O)C(=O)c1cc(Cl)cc(C)c1NC(=O)c1cc(Br)nn1-c1ncccc1Cl` [Example 7, 3-bromo-N-[4-chloro-2-methyl-6-[(methylamino)oxoacetyl]phenyl]-1-(3-chloro-2-pyridinyl)-1H-pyrazole-5-carboxamide], the melting point came to 247 °C.
